The values below come from patent publication EP1130064A1, “DYE COMPOSITION, INK COMPOSITION, AND INK-JET RECORDING METHOD” (Nippon Kayaku Kabushiki Kaisha, priority 1998, dated 2000).

Data set [1] is described as follows: Light fastness of recorded image (carbon arc fade meter). The class given is physicochemical. As to conditions: carbon arc 40 hours; for Light fastness Judgment: blue scale grade JIS L-0841; for Light fastness (ΔE): color difference before/after. An excerpt: (§1) By using an ink-jet printer (Trade name: PICTY80L, made by NEC KK), ink-jet printing was done on five types of recording materials: a plain paper(Printer Paper A4, TLB5A4S, made by Canon KK), a special paper A(Color BJ Paper LC101, made by Canon KK), a special paper B(Color Image Jet Coat Paper STX73A4, made by Sharp KK), a glossy film A(Special Glossy Film MJA4SP6, made by Seiko-Epson KK), and a glossy film B(Color BJ Photo Sheet Film CA-101, made by Canon KK). The test results on hue, vividness, light fastness, and water fastness in recorded images pictured by the water-based yellow ink composition ( X=H, M=Na in Formula (1)) of the present invention are shown in Table 2.
(§2) An ink composition for the comparative example was prepared same as in the above (A), but the ink composition contained C.I. Acid Yellow 17, an azo dye generally applied for an ink-jet yellow dye in place of the dye composition in Table 1 and was adjusted to coincide in optical density with the yellow ink of the present invention. The test results on hue, vividness, light fastness, and water fastness in recorded images pictured by the ink composition for the comparative example also are shown in Table 2. Hue and vividness in the color sample of JNC's JAPAN COLOR are shown in Table 2 (The paper of the color sample Japan Color Standard Paper a paper). (C) Assessment of recorded image
A carbon arc fade meter ( by Suga Testing Machine Co.) was used to irradiate carbon arc on the recorded image for 40 hours. Grade was determined based on blue scale grade as prescribed in JIS L-0841. Color difference (ΔE) between before and after the irradiation also was determined by using the above colorimetry.

A short description of data set [2]: Water fastness of recorded image (stirred in water). The class given is physicochemical. As to conditions: stirred in water 2 min, dried; for Water fastness Judgment: JIS fading gray scale; for Water fastness (ΔE): color difference before/after.
Text: as §1, §2
A recorded material was set in a beaker filled with water, stirred for 2 min and dried. The color fading of the recorded image after treatment was determined based on the JIS fading gray scale. Color difference (ΔE) between before and after the treatment also was determined by using the above colorimetry.

Consider “C.I. Acid Yellow 17 [Comparative example 1]”, for which the “Light fastness Judgment” value was “Grade3-4” in data set [1] (Glossy film A); “Grade 2” in data set [1] (Glossy film B); “Grade4-5” in data set [1] (Plain paper); “Grade 3” in data set [1] (Special paper A); “Grade 3” in data set [1] (Special paper B). Also, the “Light fastness (ΔE)” value is on record as 17.6 in data set [1] (Glossy film A); 64.6 in data set [1] (Glossy film B); 4.5 in data set [1] (Plain paper); 33.5 in data set [1] (Special paper A); 29.4 in data set [1] (Special paper B). The “Water fastness Judgment” value is on record as “Grade4-5” in data set [2] (Glossy film A); “Grade4-5” in data set [2] (Glossy film B); “Grade 1” in data set [2] (Plain paper); “Grade 3” in data set [2] (Special paper A); “Grade 2” in data set [2] (Special paper B). Further, the “Water fastness (ΔE)” value is given as 6.2 in data set [2] (Glossy film A); 4.7 in data set [2] (Glossy film B); 76.8 in data set [2] (Plain paper); 15.7 in data set [2] (Special paper A); 39.6 in data set [2] (Special paper B).
